Drawing on patent US20250026762A1, “FUSED PYRAZOLE UREA ANALOGS AS GLUCOSYLCERAMIDE SYNTHASE INHIBITORS” (Merck Sharp & Dohme LLC, priority 2021, published 2025), this text covers EC50 for 27 compounds.

Each structure is given as a SMILES string.

For the assay, the target named is glucosylceramide synthase (GCS) enzyme in Golgi preparations from human A375 malignant melanoma skin cells (Homo sapiens (Human), UniProt Q16739). Kind of assay: UDP-Glo glucosylceramide synthase biochemical assay. The note with it: 1.5 μg crude golgi preparation; C6 ceramide and UDP-glucose at 2×Km; 20 h incubation at room temperature; luminescence. An excerpt:
UDP-Glo™ Glucosylceramide Synthase Biochemical Assay
A UDP-Glo™ glucosylceramide synthase biochemical assay was utilized to evaluate the effect of test compounds on the activity of endogenous levels of GCS enzyme contained within Golgi preparations isolated from human A375 malignant melanoma skin cells. The UDP-Glo™ glucosylceramide synthase assay uses UDP-Glucose as a nucleotide-glycosyl donor and ceramide as substrate acceptor molecules. In the reaction, glucosylceramide synthase (GCS) transfers glucose from UDP-Glucose to ceramide. Glucosylceramide and UDP are released as products.
Using Promega's UDP-Glo™ Glycosyltransferase assay kit (Promega Corporation, Madison, WI, USA (Promega)), GCS activity was indirectly measured by detecting the amount of UDP produced. An aliquot of GCS enzyme (1.5 μg crude golgi preparation, total protein) and titrated test compound were aliquoted to each well and incubated for 30 minutes at room temperature. Substrate mixture was prepared by mixing C6 ceramide (Avanti Polar Lipids, Alabaster, AL USA (Avanti)) (micelles prepared at 0.6 mM in 0.6 mM DOPC) and UDP-glucose (20 μM; Promega), at concentrations equivalent to 2×Km, in assay buffer (25 mM HEPES (pH 7.5), 50 mM KCl, 5 mM MgCl2). An equivalent volume of substrate mixture was then added to each well. Following a 20 h incubation at room temperature to allow for GCS turnover of substrate, an equal volume of UDP detection reagent (Promega) was added to each well and incubated for an additional 75 minutes at room temperature to simultaneously convert the accumulated UDP product into ATP and generate light in a luciferase reaction. The generated light was detected using a luminometer. […] luminescence values (RLUs) were normalized to mean “min” and “max” effects, as determined on each plate. “Min” was defined as the mean of the values of the wells treated with vehicle (DMSO) and which represent 0% inhibition; “max” was defined as the mean of the values of the wells treated with a reference inhibitor and which represent the 100% effect. Values for % Emax and EC50 were determined by best-fitting the normalized data to a curve in Activity Base along a four-parameter logistic nonlinear regression (4PL) model (based on the Levenberg-Marquardt algorithm and defined by the equation below): […]
where: n is 4PMin (bottom of the curve); m is 4PMax (top of the curve); i is IP (inflection point of curve); andp is slope. See Levenberg, K., “A Method for the Solution of Certain Problems in Least Squares”, Quart. Appl. Math. 2, (1944), pp 164-168 and Marquardt, D., “An Algorithm for Least Squares Estimation on Nonlinear Parameters”, SIAM J. Appl. Math. 11, (1963) pp 431-441.

Chain of glucosylceramide synthase (GCS) enzyme in Golgi preparations from human A375 malignant melanoma skin cells (Q16739 whole entry): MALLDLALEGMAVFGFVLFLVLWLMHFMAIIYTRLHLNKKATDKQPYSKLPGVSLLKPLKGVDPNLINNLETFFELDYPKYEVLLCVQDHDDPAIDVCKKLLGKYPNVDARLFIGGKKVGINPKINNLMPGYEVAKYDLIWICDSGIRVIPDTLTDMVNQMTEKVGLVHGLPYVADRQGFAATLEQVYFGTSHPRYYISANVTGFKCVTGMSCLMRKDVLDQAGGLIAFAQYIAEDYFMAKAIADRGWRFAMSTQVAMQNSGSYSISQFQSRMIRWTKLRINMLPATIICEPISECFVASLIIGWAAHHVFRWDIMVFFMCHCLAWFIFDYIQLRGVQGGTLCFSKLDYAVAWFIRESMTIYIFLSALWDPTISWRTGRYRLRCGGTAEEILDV

Turning to `O=C(N1CCN2CCC1CC2)n1nc(-c2ccc(F)cc2)c2c1C1CCC2C1` [Compound 14, (R,R) and (S,S)-(1,4-diazabicyclo[3.2.2]nonan-4-yl)(3-(4-fluorophenyl)-4,5,6,7-tetrahydro-1H-4,7-methanoindazol-1-yl)methanone], it took 1.2 nM to reach a half-maximal effect (EC50).

`O=C(N1CCN2CCC1CC2)n1nc(OC2CCCC2)c2c1CCC2` [Compound 26, (1,4-diazabicyclo[3.2.2]nonan-4-yl)(3-(cyclopentyloxy)-5,6-dihydrocyclopenta[c]pyrazol-1(4H)-yl)methanone] came in with a concentration giving a half-maximal response (EC50) of 23.3 nM.

In the case of `Cc1c(-c2ccc(F)cc2)nn(C(=O)N2CCN3CCC2CC3)c1C` [Compound 64, (1,4-diazabicyclo[3.2.2]nonan-4-yl)(3-(4-fluorophenyl)-4,5-dimethyl-1H-pyrazol-1-yl)methanone], the midpoint of the response, the EC50, lay at 8.8 nM.

Take `O=C(N1CCN2CCC1CC2)n1nc(-n2cc(Cl)cn2)c2c1COCC2` [Compound 55, (1,4-diazabicyclo[3.2.2]nonan-4-yl)(3-(4-chloro-1H-pyrazol-1-yl)-4,7-dihydropyrano[3,4-c]pyrazol-1(5H)-yl)methanone]: the EC50 came to 10.4 nM.

Consider `O=C(N1CCN2CCC1CC2)n1nc(-n2cc(C(F)(F)F)cn2)c2c1[C@H]1C[C@H]1C2` [Compound 61, (1,4-diazabicyclo[3.2.2]nonan-4-yl)((4aS,5aS)-3-(4-(trifluoromethyl)-1H-pyrazol-1-yl)-4,4a,5,5a-tetrahydro-1H-cyclopropa[4,5]cyclopenta[1,2-c]pyrazol-1-yl)methanone], for which the EC50 was 0.1 nM.

As to `O=C(N1CCN2CCC1CC2)n1nc(-c2ccc(OC(F)F)cc2)c2c1CCC2` [Compound 5, 1,4-diazabicyclo[3.2.2]nonan-4-yl-[3-[4-(difluoromethoxy)phenyl]-5,6-dihydro-4H-cyclopenta[c]pyrazol-1-yl]methanone], the EC50 stood at 0.3 nM.

For `CC1(C)COc2c(-c3ccc(F)cc3)nn(C(=O)N3CCN4CCC3CC4)c21` [Compound 17, (1,4-diazabicyclo[3.2.2]nonan-4-yl)(3-(4-fluorophenyl)-6,6-dimethyl-5,6-dihydro-1H-furo[3,2-c]pyrazol-1-yl)methanone], the EC50 was found to be 10.1 nM.

The compound `O=C(N1CCN2CCC1CC2)n1nc(-c2ccc3c(c2)CCO3)c2c1CCC2` [Compound 43, 1,4-diazabicyclo[3.2.2]nonan-4-yl-[3-(2,3-dihydrobenzofuran-5-yl)-5,6-dihydro-4H-cyclopenta[c]pyrazol-1-yl]methanone] displayed an EC50 of 0.5 nM.

In turn, `CC1CCOc2c1c(-c1ccc(F)cc1)nn2C(=O)N1CCN2CCC1CC2` (stereo not drawn) [Compound 62, R and S-(1,4-diazabicyclo[3.2.2]nonan-4-yl)(3-(4-fluorophenyl)-4-methyl-5,6-dihydropyrano[2,3-c]pyrazol-1(4H)-yl)methanone] showed a 50% effective concentration (EC50) of 7.7 nM.

For `COc1ncc(-c2nn(C(=O)N3CCN4CCC3CC4)c3c2CCC3)cc1Cl` [Compound 6, [3-(5-chloro-6-methoxy-3-pyridyl)-5,6-dihydro-4H-cyclopenta[c]pyrazol-1-yl]-(1,4-diazabicyclo[3.2.2]nonan-4-yl)methanone], the midpoint of the response, the EC50, lay at 0.4 nM.

For the compound `O=C(N1CCN2CCC1CC2)n1nc(-c2cc(F)c(F)c(F)c2)c2c1CCOC2` [Compound 46, (1,4-diazabicyclo[3.2.2]nonan-4-yl)(3-(3,4,5-trifluorophenyl)-6,7-dihydropyrano[4,3-c]pyrazol-1(4H)-yl)methanone], the midpoint of the response, the EC50, lay at 4.6 nM.

`COc1cccc(-c2nn(C(=O)N3CCN4CCC3CC4)c3c2CCC3)c1F` [Compound 41, 1,4-diazabicyclo[3.2.2]nonan-4-yl-[3-(2-fluoro-3-methoxy-phenyl)-5,6-dihydro-4H-cyclopenta[c]pyrazol-1-yl]methanone] registered an EC50 of 0.5 nM.

Regarding `O=C(N1CCN2CCC1CC2)n1nc(-c2cc(F)c(F)cc2F)c2c1CCOC2` [Compound 45, (1,4-diazabicyclo[3.2.2]nonan-4-yl)(3-(2,4,5-trifluorophenyl)-6,7-dihydropyrano[4,3-c]pyrazol-1(4H)-yl)methanone], the EC50 was determined as 2.3 nM.

With `O=C(N1CCN2CCC1CC2)n1nc(-c2ccc(F)cc2)c2c1COCC2` [Compound 1, 1,4-diazabicyclo[3.2.2]nonan-4-yl(3-(4-fluorophenyl)-4,5-dihydropyrano[3,4-c]pyrazol-1(7H)-yl)methanone], the EC50 was 5.1 nM.

Compound `O=C(N1CCN2CCC1CC2)n1nc(-n2cc(C(F)(F)F)cn2)c2c1COCC2` [Compound 53, (1,4-diazabicyclo[3.2.2]nonan-4-yl)(3-(4-(trifluoromethyl)-1H-pyrazol-1-yl)-4,7-dihydropyrano[3,4-c]pyrazol-1(5H)-yl)methanone] returned an EC50 of 4.1 nM.

In turn, `O=C(N1CCN2CCC1CC2)n1nc(-c2ccc(F)c(F)c2F)c2c1CCOC2` [Compound 42, (1,4-diazabicyclo[3.2.2]nonan-4-yl)(3-(2,3,4-trifluorophenyl)-6,7-dihydropyrano[4,3-c]pyrazol-1(4H)-yl)methanone] returned an EC50 of 0.9 nM.

On to `O=C(N1CCN2CCC1CC2)n1nc(-c2ccc(F)cc2)c2c1CCOC2` [Compound 13, 1,4-diazabicyclo[3.2.2]nonan-4-yl-[3-(4-fluorophenyl)-6,7-dihydro-4H-pyrano[4,3-c]pyrazol-1-yl]methanone], for which a half-maximal effect (EC50) was put at 4.1 nM.

Consider `O=C(N1CCN2CCC1CC2)n1nc(-c2ccc(F)cc2)c2c1CCC2` [Compound 12, 1,4-diazabicyclo[3.2.2]nonan-4-yl-[3-(4-fluorophenyl)-5,6-dihydro-4H-cyclopenta[c]pyrazol-1-yl]methanone], for which it took 0.3 nM to reach a half-maximal effect (EC50).

Regarding `COc1cnn(-c2nn(C(=O)N3CCN4CCC3CC4)c3c2CCC3)c1` [Compound 58, (1,4-diazabicyclo[3.2.2]nonan-4-yl)(3-(4-methoxy-1H-pyrazol-1-yl)-5,6-dihydrocyclopenta[c]pyrazol-1(4H)-yl)methanone], it took 10 nM to reach a half-maximal effect (EC50).

`COc1ncc(-c2nn(C(=O)N3CCN4CCC3CC4)c3c2C[C@@H]2C[C@H]32)cc1Cl` [Compound 8, (1,4-diazabicyclo[3.2.2]nonan-4-yl)((4aS,5aS)-3-(5-chloro-6-methoxypyridin-3-yl)-4,4a,5,5a-tetrahydro-1H-cyclopropa[4,5]cyclopenta[1,2-c]pyrazol-1-yl)methanone] came in with an EC50 of 0.1 nM.

In the case of `O=C(N1CCN2CCC1CC2)n1nc(-c2cc(Cl)c(F)cn2)c2c1COCC2` [Compound 49, (1,4-diazabicyclo[3.2.2]nonan-4-yl)(3-(4-chloro-5-fluoropyridin-2-yl)-4,7-dihydropyrano[3,4-c]pyrazol-1(5H)-yl)methanone], the response was half-maximal at 8.3 nM (EC50).

With `O=C(N1CCN2CCC1CC2)n1nc(-c2ccc(F)c(Cl)c2)c2c1CCOC2` [Compound 36, (1,4-diazabicyclo[3.2.2]nonan-4-yl)(3-(3-chloro-4-fluorophenyl)-6,7-dihydropyrano[4,3-c]pyrazol-1(4H)-yl)methanone], the midpoint of the response, the EC50, lay at 0.3 nM.

The compound `Cc1cnn(-c2nn(C(=O)N3CCN4CCC3CC4)c3c2CCC3)c1` [Compound 57, (1,4-diazabicyclo[3.2.2]nonan-4-yl)(3-(4-methyl-1H-pyrazol-1-yl)-5,6-dihydrocyclopenta[c]pyrazol-1(4H)-yl)methanone] gave an EC50 of 9.2 nM.

As for `O=C(N1CCN2CCC1CC2)n1nc(-c2ccc(F)cc2)c2c1C1CC1CC2` (single isomer, unassigned) [Compound 10], the concentration giving a half-maximal response (EC50) was determined as 0.3 nM.

Compound `O=C(N1CCN2CCC1CC2)n1nc(-c2ccc(F)c(Cl)c2)c2c1COCC2` [Compound 7, [3-(3-chloro-4-fluoro-phenyl)-5,7-dihydro-4H-pyrano[3,4-c]pyrazol-1-yl]-(1,4-diazabicyclo[3.2.2]nonan-4-yl)methanone] came in with a concentration for a half-maximal effect (EC50) of 1 nM.

`O=C(N1CCN2CCC1CC2)n1nc(-c2ccc(F)c(Cl)c2)c2c1COC2` [Compound 50, (1,4-diazabicyclo[3.2.2]nonan-4-yl)(3-(3-chloro-4-fluorophenyl)-4,6-dihydro-1H-furo[3,4-c]pyrazol-1-yl)methanone] showed an EC50 of 14.9 nM.

The compound `O=C(N1CCN2CCC1CC2)n1nc(-c2ccc(F)cc2)c2c1CC(F)(F)C2` [Compound 20, (1,4-diazabicyclo[3.2.2]nonan-4-yl)(5,5-difluoro-3-(4-fluorophenyl)-5,6-dihydrocyclopenta[c]pyrazol-1(4H)-yl)methanone] gave an EC50 of 4.7 nM.
